Measured values from ChEMBL document CHEMBL2396630, “Backbone cyclic helix mimetic of chemokine (C-C motif) receptor 2: a rational approach for inhibiting dimerization of G protein-coupled receptors” (Bioorg Med Chem, 2013).
The source made the active and inactive calls. The calls are words filed in the database; no cut-off is given here. Numbered stars: 1 amine (or outer) side, 2 acyl side, 3 side chain; on linkers, the order of the positions; unused ones are H or OH. Bridge positions count the residues as written; N and C are the ends. Square brackets hold non-standard residues; d marks the D form. Peptide text beside a SMILES is read from it. N(2-Aminoethyl)Gly = O=C(CN(CCN[*:3])[*:1])[*:2]; CO = O=C([*:1])[*:2]; Nlys = NCCCCNCC(=O)O

What was measured:
Format in all cases: cell-based
[1] = biological target: C-C chemokine receptor type 2 (Homo sapiens) (UniProt P41597); test: Binding affinity to CCR2 in human THP1 cells assessed as inhibition of MCP1-mediated monocyte migration after 30 mins by Transwell assay relative to untreated control; conditions: THP-1
Chain of C-C chemokine receptor type 2 (Homo sapiens) (P41597 whole entry, looked up): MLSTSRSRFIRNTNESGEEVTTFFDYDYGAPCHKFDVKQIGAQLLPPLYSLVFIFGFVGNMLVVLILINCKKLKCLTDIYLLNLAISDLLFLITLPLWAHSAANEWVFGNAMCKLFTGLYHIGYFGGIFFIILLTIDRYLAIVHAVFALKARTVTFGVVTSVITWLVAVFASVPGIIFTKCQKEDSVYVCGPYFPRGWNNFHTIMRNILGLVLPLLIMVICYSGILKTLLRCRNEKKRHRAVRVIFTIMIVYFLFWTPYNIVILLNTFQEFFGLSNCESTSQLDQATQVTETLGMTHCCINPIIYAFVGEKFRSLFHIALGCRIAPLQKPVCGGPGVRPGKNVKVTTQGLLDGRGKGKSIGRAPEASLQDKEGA

[2] = biological target: C-C chemokine receptor type 2 (Homo sapiens) (UniProt P41597); test: Binding affinity to CCR2 in human THP1 cells assessed as inhibition of monocyte migration after 30 mins by Transwell assay; conditions: THP-1
[3] = biological target: C-C chemokine receptor type 2 (Homo sapiens) (UniProt P41597); test: Binding affinity to CCR2 in human THP1 cells assessed as inhibition of SDF1-mediated monocyte migration after 30 mins by Transwell assay; conditions: THP-1
THP-1 = test: Cytotoxicity against human THP1 cells assessed as cell death
[4] = biological target: C-C chemokine receptor type 2 (Homo sapiens) (UniProt P41597); test: Binding affinity to CCR2 in human THP1 cells assessed as inhibition of MCP1-mediated monocyte migration at 10 uM after 30 mins by Transwell assay relative to untreated control; conditions: THP-1

Row | Molecule | inhibition [1] | inhibition [4] | other results
1 | CC[C@H](C)[C@@H]1NC(=O)[C@H](CC(C)C)NC(=O)CN(C(=O)[C@@H](NC(=O)[C@H](CC(C)C)NC(=O)[C@@H](N)CCSC)C(C)C)CCNC(=O)NCCCCN(CC(N)=O)C1=O (H-MLV[N(2-Aminoethyl)Gly]LI[Nlys]-NH2; linker 4-7 via CO) | Active |  | inhibition [2]: inactive; inhibition [3]: inactive; Activity (THP-1): Non-toxic
2 | CC[C@H](C)[C@H](NC(=O)CN1CCCCNC(=O)NCCN(C(=O)[C@@H](N)CCSC)CC(=O)N[C@@H](C(C)C)C(=O)N[C@@H](C(C)C)C1=O)C(=O)N[C@@H](CC(C)C)C(N)=O (H-M[N(2-Aminoethyl)Gly]VV[Nlys]IL-NH2; linker 2-5 via CO) | inactive |  | 
3 | CC[C@H](C)[C@H](NC(=O)[C@H](CC(C)C)NC(=O)[C@@H](N)C(C)C)C(=O)N[C@@H](CC(C)C)C(=O)O (H-VLIL-OH) |  | inactive | 
4 | CC[C@H](C)[C@H](NC(=O)[C@H](CC(C)C)NC(=O)CN1CCCCNC(=O)NCCNCC(=O)N[C@@H](CC(C)C)C(=O)N[C@@H](C(C)C)C1=O)C(=O)N[C@@H](CC(C)C)C(N)=O (H-[N(2-Aminoethyl)Gly]LV[Nlys]LIL-NH2; linker 1-4 via CO) | inactive |  | 
5 | CC[C@H](C)[C@H](NC(=O)[C@H](CC(C)C)NC(=O)[C@@H](NC(=O)CN1CCCCNC(=O)NCCNCC(=O)N[C@@H](CCSC)C(=O)N[C@@H](CC(C)C)C1=O)C(C)C)C(=O)N[C@@H](CC(C)C)C(N)=O (H-[N(2-Aminoethyl)Gly]ML[Nlys]VLIL-NH2; linker 1-4 via CO) | inactive |  | 
6 | H-LVVLIL-OH |  | inactive | 
7 | H-MLVVLIL-OH |  | Active | 
8 | H-VVLIL-OH |  | inactive | 
